Data: PubChem BioAssay (NCI)
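Cultured in 96-well plates, cells were exposed to test compound for 48 hours across five concentrations. Abbreviation: GI50, concentration required for 50% inhibition of growth. TGI marks complete inhibition of growth.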

Legend:
Assay in all cases: NCI anticancer screen, dose series, 48 h
MOLT-4 leukemia = test system: MOLT-4 leukemia
U251 CNS = test system: U251 CNS
HOP-62 NSCLC = test system: HOP-62 NSCLC
M14 melanoma = test system: M14 melanoma
IGROV1 ovarian = test system: IGROV1 ovarian
CAKI-1 renal = test system: CAKI-1 renal
MCF7 breast = test system: MCF7 breast
KM12 colon = test system: KM12 colon
SK-OV-3 ovarian = test system: SK-OV-3 ovarian
BT-549 breast = test system: BT-549 breast

COc1cc(C(C)c2cc3c(cc2OCCO)OCO3)cc(OC)c1OC (stereo not drawn)
TGI (MOLT-4 leukemia): > 100 µM
TGI (U251 CNS): > 100 µM
TGI (HOP-62 NSCLC): > 100 µM
TGI (M14 melanoma): > 100 µM
TGI (IGROV1 ovarian): > 100 µM
TGI (CAKI-1 renal): > 100 µM

CCOC(=O)c1cnc2oc3ccc(O)cc3c2c1-c1ccccc1
TGI (MCF7 breast): > 100 µM
GI50 (KM12 colon): 5.11 µM
TGI (KM12 colon): > 100 µM
TGI (SK-OV-3 ovarian): 46.1 µM
TGI (MOLT-4 leukemia): > 100 µM
TGI (U251 CNS): > 100 µM
TGI (M14 melanoma): > 100 µM
GI50 (IGROV1 ovarian): 2.53 µM
TGI (IGROV1 ovarian): > 100 µM
TGI (CAKI-1 renal): > 100 µM

C[C@H]1C[C@H]2[C@@H]3C(C)(C)O[C@]4(O)C(=O)[C@]5(O)[C@@H](C)CC[C@H]1[C@]25C(=O)[C@]34C
TGI (MCF7 breast): > 100 µM
TGI (KM12 colon): 99.7 µM
TGI (SK-OV-3 ovarian): > 100 µM
TGI (MOLT-4 leukemia): 80.7 µM
TGI (U251 CNS): > 100 µM
TGI (HOP-62 NSCLC): > 100 µM
TGI (M14 melanoma): > 100 µM
TGI (IGROV1 ovarian): > 100 µM
TGI (CAKI-1 renal): > 100 µM

COc1cc2cc[n+]3c(C)c4cc(OC)c(OC)cc4c([O-])c3c2cc1OC
TGI (KM12 colon): > 100 µM
TGI (SK-OV-3 ovarian): > 100 µM
TGI (MOLT-4 leukemia): > 100 µM
TGI (U251 CNS): > 100 µM
TGI (HOP-62 NSCLC): > 100 µM
TGI (M14 melanoma): > 100 µM
TGI (IGROV1 ovarian): 72.8 µM
TGI (CAKI-1 renal): > 100 µM

Cc1nc2c(sc(=S)n2-c2ccccc2)c(=O)[nH]1
TGI (KM12 colon): > 100 µM
TGI (SK-OV-3 ovarian): > 100 µM
TGI (MOLT-4 leukemia): > 100 µM
TGI (U251 CNS): > 100 µM
TGI (HOP-62 NSCLC): > 100 µM
TGI (IGROV1 ovarian): > 100 µM

CCOC(=O)c1c(N2CCCC2)ncn(Cc2ccccc2)c1=S
TGI (KM12 colon): > 100 µM
TGI (SK-OV-3 ovarian): > 100 µM
TGI (MOLT-4 leukemia): > 100 µM
TGI (U251 CNS): > 100 µM
TGI (BT-549 breast): > 100 µM
TGI (HOP-62 NSCLC): > 100 µM
TGI (M14 melanoma): > 100 µM
TGI (IGROV1 ovarian): > 100 µM
TGI (CAKI-1 renal): 88.3 µM

CCCC(=O)NC(Nc1ccc(S(=O)(=O)Nc2nc(C)cc(C)n2)cc1)(C(F)(F)F)C(F)(F)F
TGI (KM12 colon): > 100 µM
TGI (SK-OV-3 ovarian): > 100 µM
TGI (MOLT-4 leukemia): > 100 µM
TGI (U251 CNS): > 100 µM
TGI (BT-549 breast): > 100 µM
TGI (HOP-62 NSCLC): > 100 µM
TGI (M14 melanoma): > 100 µM
TGI (IGROV1 ovarian): > 100 µM
TGI (CAKI-1 renal): > 100 µM

OC(CCNCc1ccccc1)c1ccc2ccccc2c1 (stereo not drawn)
TGI (MCF7 breast): 54.3 µM
TGI (KM12 colon): 31.7 µM
TGI (MOLT-4 leukemia): 84.8 µM
TGI (U251 CNS): 30.6 µM
TGI (HOP-62 NSCLC): 33.5 µM
TGI (M14 melanoma): > 100 µM
TGI (IGROV1 ovarian): 30.6 µM
TGI (CAKI-1 renal): 42.6 µM

CCOP(=O)(OCC)C1CC(n2cc(C)c(=O)[nH]c2=O)OC1CO (stereo not drawn)
TGI (MCF7 breast): > 100 µM
TGI (KM12 colon): > 100 µM
TGI (MOLT-4 leukemia): > 100 µM
TGI (U251 CNS): > 100 µM
TGI (BT-549 breast): > 100 µM
TGI (HOP-62 NSCLC): > 100 µM
TGI (M14 melanoma): > 100 µM
TGI (IGROV1 ovarian): > 100 µM
TGI (CAKI-1 renal): > 100 µM

COc1ccc(C(=O)Cc2ccc(Br)cc2)cc1OC
TGI (SK-OV-3 ovarian): > 100 µM
TGI (MOLT-4 leukemia): > 100 µM
TGI (U251 CNS): > 100 µM
TGI (HOP-62 NSCLC): > 100 µM
TGI (M14 melanoma): > 100 µM
TGI (IGROV1 ovarian): > 100 µM
TGI (CAKI-1 renal): > 100 µM

COc1ccccc1Cc1nc(-c2ccccc2)nn(C2OC(COC(C)=O)C(OC(C)=O)C(OC(C)=O)C2OC(C)=O)c1=S (stereo not drawn)
TGI (MCF7 breast): 33.9 µM
TGI (KM12 colon): > 100 µM
TGI (SK-OV-3 ovarian): > 67.2 µM
TGI (MOLT-4 leukemia): > 100 µM
TGI (U251 CNS): > 31.6 µM
TGI (HOP-62 NSCLC): 38.3 µM
TGI (IGROV1 ovarian): > 93.9 µM
TGI (CAKI-1 renal): 32.9 µM

CC1(c2ccc[n+](Cc3ccccc3)c2)OCCO1
TGI (KM12 colon): > 100 µM
TGI (SK-OV-3 ovarian): > 100 µM
TGI (MOLT-4 leukemia): > 100 µM
TGI (U251 CNS): > 100 µM
TGI (HOP-62 NSCLC): > 100 µM
TGI (M14 melanoma): > 100 µM
TGI (IGROV1 ovarian): > 100 µM
TGI (CAKI-1 renal): > 100 µM

COc1ccccc1NC(=O)CC(=O)N1N=C(C)C(N=Nc2ccc(C(=O)O)cc2)C1=O (stereo not drawn)
TGI (MCF7 breast): > 100 µM
TGI (KM12 colon): > 100 µM
TGI (U251 CNS): > 100 µM
TGI (BT-549 breast): > 100 µM
TGI (HOP-62 NSCLC): > 100 µM
TGI (M14 melanoma): > 100 µM
TGI (IGROV1 ovarian): > 100 µM
TGI (CAKI-1 renal): > 100 µM

NCCCN(CCCN)CCN(CCN(CCCN)CCCN)CCN(CCCN)CCCN
TGI (MCF7 breast): > 100 µM
TGI (SK-OV-3 ovarian): > 100 µM
TGI (U251 CNS): > 100 µM
TGI (HOP-62 NSCLC): > 100 µM
TGI (M14 melanoma): > 100 µM
TGI (IGROV1 ovarian): > 100 µM
TGI (CAKI-1 renal): > 100 µM

O=C1C(=O)c2ccccc2C(O)=C1CCCc1ccc(Oc2ccccc2)cc1
TGI (KM12 colon): > 100 µM
TGI (SK-OV-3 ovarian): > 100 µM
TGI (MOLT-4 leukemia): > 100 µM
TGI (U251 CNS): > 100 µM
TGI (HOP-62 NSCLC): 23.2 µM
TGI (M14 melanoma): 24.5 µM
TGI (IGROV1 ovarian): 84.3 µM
TGI (CAKI-1 renal): 70.5 µM

COc1ccc(C(=O)/C=C/c2c(Cl)c3c(c(OC)c2Cl)OCC(=O)N3)cc1
GI50 (MCF7 breast): 2.32 µM
TGI (MCF7 breast): > 100 µM
GI50 (SK-OV-3 ovarian): 3.59 µM
TGI (SK-OV-3 ovarian): 27.1 µM
GI50 (MOLT-4 leukemia): 2.71 µM
TGI (MOLT-4 leukemia): 9.75 µM
GI50 (HOP-62 NSCLC): 2.8 µM
TGI (HOP-62 NSCLC): 6.96 µM
GI50 (M14 melanoma): 2.03 µM
TGI (M14 melanoma): 5.12 µM
GI50 (IGROV1 ovarian): 3.28 µM
TGI (IGROV1 ovarian): > 100 µM

C/C(Nc1ccc(F)cc1)=C1/CCOC1=O
TGI (KM12 colon): > 100 µM
TGI (MOLT-4 leukemia): > 100 µM
TGI (U251 CNS): > 100 µM
TGI (BT-549 breast): > 100 µM
TGI (HOP-62 NSCLC): > 100 µM
TGI (IGROV1 ovarian): > 100 µM

COc1ccc2c(c1)c(CC(=O)O)c(C)n2C(=O)c1ccc(Cl)cc1
TGI (MCF7 breast): > 100 µM
TGI (KM12 colon): > 100 µM
TGI (MOLT-4 leukemia): > 100 µM
TGI (U251 CNS): > 100 µM
TGI (HOP-62 NSCLC): > 100 µM
TGI (M14 melanoma): > 100 µM
TGI (IGROV1 ovarian): > 100 µM
TGI (CAKI-1 renal): > 100 µM

Oc1c([Si](c2ccccc2)(c2ccccc2)c2ccccc2)cc2ccccc2c1-c1c(O)c([Si](c2ccccc2)(c2ccccc2)c2ccccc2)cc2ccccc12
TGI (MCF7 breast): > 100 µM
TGI (KM12 colon): > 100 µM
TGI (SK-OV-3 ovarian): > 100 µM
TGI (MOLT-4 leukemia): > 100 µM
TGI (U251 CNS): > 100 µM
TGI (HOP-62 NSCLC): > 100 µM
TGI (M14 melanoma): > 100 µM
TGI (IGROV1 ovarian): > 100 µM
TGI (CAKI-1 renal): > 100 µM

CN(C)c1nc2oc(-c3ccccc3)c(-c3ccccc3)c2c2nnnn12
TGI (MCF7 breast): > 100 µM
TGI (KM12 colon): > 100 µM
TGI (SK-OV-3 ovarian): > 100 µM
TGI (MOLT-4 leukemia): > 100 µM
TGI (U251 CNS): > 100 µM
TGI (M14 melanoma): > 100 µM
TGI (IGROV1 ovarian): > 100 µM
TGI (CAKI-1 renal): > 100 µM
